The results in this text go back to paper PMC11456916, “A screen for cell envelope stress uncovers an inhibitor of prolipoprotein diacylglyceryl transferase, Lgt, in Escherichiacoli” (iScience, 2024).

Assay type in all cases: cell-based
The test system of one data set is E. coli ΔtolC-pore Δlpp. As to the kind of experiment: MIC in lpp deletion background. The conditions noted are these: E. coli ΔtolC-pore Δlpp versus E. coli ΔtolC-pore. The source says:
We next turned to genetic approaches to confirm the mechanism of action of MAC-0452936. […] To that end, we screened the E. coli CRISPRi collection in the ΔtolC-pore genetic background with a sub-inhibitory concentration of MAC-0452936 and measured the fitness of all 356 CRISPRi mutants (Figure 4C and Data S4). […] Depletion of Lgt by CRISPRi provided supporting evidence that MAC-0452936 targeted Lgt in E. coli; however, we sought to confirm this observation using a parallel genetic approach. We hypothesized that MAC-0452936 potency would also be affected by high-copy expression of lgt. To that end, we introduced either an arabinose inducible copy of lgt supplied on the pCHAP9231 plasmid[48] or the pBAD19s plasmid as a control into E. coli ΔtolC-pore and tested the potency of MAC-0452936 (Figure 4E). Induction of lgt expression with arabinose suppressed the activity of MAC-0452936 by about 8-fold. […] To test this hypothesis, we constructed E. coli ΔlgtΔtolC-pore with pCHAP9231[48] so that lgt expression was driven solely by arabinose from the plasmid. […] To test this observation with MAC-0452936, we introduced an lpp deletion into our screening strain E. coli ΔtolC-pore and assessed the activity of our Lgt inhibitor in this mutant background. […]

In a further data set the test system is E. coli ΔtolC-pore. As to the kind of experiment: Selection of spontaneous resistance mutants. Conditions: E. coli ΔtolC-pore plated on LB agar with 4×, 8× and 16× MIC. From the text:
The point mutations in Lgt were the only mutations identified in all five isolates (the Illumina sequencing and BreSeq alignment files have been made available in an online data repository, https://zenodo.org/records/11068394). Lgt catalyzes the essential transfer of diacylglycerol from phosphatidyl-glycerol (PG) to the terminal cysteine of pre-prolipoproteins[48] and was also identified as a possible target in our CRISPRi screen for rcsA bioreporter induction (Figures 2E and S3). When mapped to a recently solved crystal structure of E. coli Lgt,[49] the three distinct variants identified in our resistant clones (A37T, V109A, and G138A) were found on three proximal α-helices in the substrate binding pocket of the enzyme (Figure 4B).
A culture of E. coli ΔtolC-pore was grown overnight in LB broth at 37°C with shaking, then, ∼6 × 10^8 CFU in 100 μL of LB broth was plated on LB agar plates containing 4, 8, or 16 μg/mL of MAC-0452936. Plates were then incubated at 37°C, and examined every 24 h for the emergence of resistant colonies. Colonies began to emerge after 48 h of incubation and were purified by restreaking on LB agar and LB agar containing the same concentrations of MAC-0452936 from which the colonies originally appeared. […] DNA samples were sequenced on the Illumina MiSeq platform (SeqCenter LLC) and reads were aligned to the E. coli BW25113 reference genome using Breseq[77] […]

The test system of another data set is human red blood cells. As to the kind of experiment: Haemolysis assay. The conditions noted are these: 37°C, 1 h. As for the experimental part:
To determine the haemolytic activity and cytotoxicity of MAC-0452936, pooled human blood and HEK293t cells were used, respectively. Fresh pooled human blood for haemolytic assay was acquired from […] Technologies, whilst, HEK293t cells were originally acquired from ATCC (Cat# CRL-3216) and were regularly grown in […] (DMEM) with 10% fetal bovine serum (FBS), L-glutamine and incubated at 37°C. Cell lines are regularly tested for mycoplasma contamination.
Haemolytic activity of MAC-0452936 was assessed as described previously. Fresh human blood (10 mL, Stem Cell Technologies, USA) was centrifuged at 4,000 rpm for 10 min. The supernatant was discarded, and the pellet was rinsed three times with 1× PBS. Subsequently, the pellet was diluted 1:5 (v/v) in 1× PBS and RBC suspensions (0.5 mL each) were incubated with varying concentrations of test compounds at 37°C for 1 h. Following this, the cell suspensions were centrifuged at 5,000g for 10 min and the supernatant was meticulously collected without disturbing the pellet. Hemolysis was assessed by measuring the absorbance of the released hemoglobin in the supernatant at 540 nm using a spectrophotometer. Triton X-100 (0.1%) was used as the positive control causing 100 per cent hemolysis. All experiments were performed in triplicates.

`COc1ccc(C(=O)O/N=C(\c2cccs2)C(C)(C)C)cc1` [MAC-0452936, (Z)-2-Pivaloylthiophene O-(4-methoxybenzoyl) oxime]: in the data set on E. coli ΔtolC-pore Δlpp, the “sensitization by deletion of lpp” value is 2 fold. Moreover, in the data set on E. coli ΔtolC-pore, the frequency of resistance was 2 x 10^−8 and the resistant isolates identified result was “five independent resistant isolates were generated”. In addition, the “hemolysis of human red blood cells” value with human red blood cells was “did not observe hemolysis”.
